Results reported in patent publication US5753647A, “Acylamino-substituted hetrazepines” (Boehringer Ingelheim KG, priority 1991, dated 1998).
Where two headings read alike, the source gives them in different places.

Tests used:
[1] = biological target: T1, PAF receptor on washed human platelets (Homo sapiens, UniProt P25105); experiment: [^3 H]PAF-receptor binding to vital human blood platelets; conditions: vital human thrombocytes
T1 construct: endogenous in cells; host or cells: human blood platelets (thrombocytes) from healthy donors, purified by Sepharose CL-2B chromatography
T1 sequence (P25105 whole entry): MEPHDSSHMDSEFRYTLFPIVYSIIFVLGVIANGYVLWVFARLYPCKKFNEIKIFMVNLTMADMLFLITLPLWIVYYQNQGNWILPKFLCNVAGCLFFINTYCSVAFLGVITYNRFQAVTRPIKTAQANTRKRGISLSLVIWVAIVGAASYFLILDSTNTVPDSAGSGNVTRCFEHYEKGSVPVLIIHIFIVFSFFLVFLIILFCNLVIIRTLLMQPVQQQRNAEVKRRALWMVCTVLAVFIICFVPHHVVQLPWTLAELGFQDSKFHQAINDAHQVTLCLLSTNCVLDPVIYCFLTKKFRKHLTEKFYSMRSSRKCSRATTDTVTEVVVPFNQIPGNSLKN
Experimental: [^3 H]PAF-Receptor-Bonding to Vital Human Blood Platelets
The competitive interaction of test substances (here PAF-antagonists) with the known interaction of the radioligand [^3 H]PAF to the same receptor is determined. The binding studies are carried out on vital human thrombocytes. Blood samples from healthy donors were diluted with ACD-buffer and centrifuged (15 min., 160×g). The platelet-rich plasma is purified by chromatography on Sepharose CL-2B [using HEPES-buffer, pH 7.4 at 20° C. for eluting].
Defined quantities [e.g. 800 μl] of the platelet suspension were incubated for 90 minutes at ambient temperature, i.e. mixed with: a) a 30 picomolar [^3 H]PAF-solution diluted with buffer. b) a 30 picomolar [3 H] PAF-solution which simultaneously contains a μ-molar (unlabelled) PAF-solution, c) with the 30 picomolar [^3 H]PAF-solution and the solutions of the test substances (different concentrations) d) used to determine total binding, e) used to determine non-specific binding.
The reaction was stopped by vacuum filtration. The filters with the blood platelets were mixed with scintillation liquid and the residual radioactivity measured in a counter.
The specific binding is obtained from the total binding minus the nonspecific binding. Either the IC50 values (i.e. the concentration of test substance which displaces 50% of the radioligand--in this case [^3 H] PAF--from the receptor) is determined and this is specified, or the Ki -values are calculated from this. This may be done by computer-aided calculation using an iteration process of the binding curves. IC50 and Ki-values are a measurement of the receptor affinity of the test substance. Lower values indicate a higher affinity.

[2] = biological target: T1, PAF receptor on washed human platelets; conditions: as known from the prior art (EP 367 110); read-out: binding value Ki of prior art compound; cited from earlier work

Compound	Ki [1]	Ki [2]
3-(4-Isobutylbenzoyl)-6-(2-chlorophenyl)-8,11-dimethyl-2,3,4,5-tetrahydro-4H-pyrido[4,3:4',5']thieno-[3,2-f][1,2,4]triazolo[4,3-a]1,4diazepine [Example 2]	1.8 nM	
COc1ccc(C(=O)N2CCc3c(sc4c3C(c3ccccc3Cl)=NC(C)c3nnc(C)n3-4)C2)cc1 (centres unmarked) [Example 29]	7.8 nM	
Cc1nnc2n1-c1sc3c(c1C(c1ccccc1Cl)=NC2)CCN(C(=O)C1CC1)C3 [3-cyclopropylcarbonyl-6-(2-chlorophenyl)-11-methyl-2,3,4,5-tetrahydro-4H-pyrido-[4,3:4',5']thieno[3,2-f][1,2,4]triazolo[4,3-a]-1,4-diazepine]		13 nM
Cc1nnc2n1-c1sc3c(c1C(c1ccccc1Cl)=NC2C)CCN(C(=O)c1ccc(Cl)cc1)C3 (centres unmarked) [Example 1a]	1.9 nM	
Cc1nnc2n1-c1sc3c(c1C(c1ccccc1Cl)=NC2C)CCN(C(=O)c1ccc(C(C)(C)C)cc1)C3 (centres unmarked) [Example 25]	2.4 nM	
CCc1ccc(C(=O)N2CCc3c(sc4c3C(c3ccccc3Cl)=NC(C)c3nnc(C)n3-4)C2)cc1 (centres unmarked) [Example 82]	2.5 nM	
Cc1nnc2n1-c1sc3c(c1C(c1ccccc1Cl)=NC2C)CCN(C(=O)C(C)(C)C)C3 (centres unmarked) [Example 73]	10 nM	
Cc1nnc2n1-c1sc3c(c1C(c1ccccc1Cl)=NC2C)CCN(C(=O)c1ccc(Cl)cc1)C3 (centres unmarked) [Example 1b]	71 nM	
Cc1nnc2n1-c1sc3c(c1C(c1ccccc1Cl)=NC2C)CCN(C(=O)c1ccc(Cl)cc1)C3 (centres unmarked) [Example 1, 3-(4-Chlorobenzoyl)-6-(2-chlorophenyl)-8,11-dimethyl-2,3,4,5-tetrahydro-4H-pyrido[4,3 :4',5']thieno-[3,2-f][1,2,4]triazolo[4,3-a]-1,4-diazepine]	2.9 nM	
Cc1nnc2n1-c1sc3c(c1C(c1ccccc1Cl)=NC2C)CCN(C(=O)c1ccc(C(F)(F)F)cc1)C3 (centres unmarked) [Example 67]	2.8 nM	
Cc1ccc(C(=O)N2CCc3c(sc4c3C(c3ccccc3Cl)=NC(C)c3nnc(C)n3-4)C2)cc1 (centres unmarked) [Example 20]	22 nM	
